The NIST ThermoML archive (doi:10.1016/j.jct.2004.11.016)

Assay: xn = mol fraction of the nth substance listed
Conditions: Liquid; for mass density: 101.3 kPa; for viscosity: 101 kPa

CN(C)CCO [2-(N,N-dimethylamino)ethanol] + O
Conditions	mass density [kg/m3]	viscosity [mPa·s]
323.15 K, x1 = 0.895	868.495	–
323.15 K, x1 = 1	861.902	–
328.15 K, x1 = 0.0617	972.399	–
328.15 K, x1 = 0.1009	964.905	–
328.15 K, x1 = 0.2017	945.194	–
328.15 K, x1 = 0.3033	927.188	–
328.15 K, x1 = 0.4051	911.247	–
328.15 K, x1 = 0.5077	898.016	–
328.15 K, x1 = 0.6099	886.733	–
328.15 K, x1 = 0.7652	873.15	–
328.15 K, x1 = 0.895	864.065	–
328.15 K, x1 = 1	857.46	–
333.15 K, x1 = 0.0617	969.09	–
333.15 K, x1 = 0.1009	961.13	1.499
333.15 K, x1 = 0.2017	940.864	2.511
333.15 K, x1 = 0.3033	922.714	3.091
333.15 K, x1 = 0.4051	906.75	3.126
333.15 K, x1 = 0.5077	893.531	2.897
333.15 K, x1 = 0.6099	882.262	2.503
333.15 K, x1 = 0.7652	868.68	1.969
333.15 K, x1 = 0.895	859.595	1.641
333.15 K, x1 = 1	852.965	1.413
338.15 K, x1 = 0.0617	965.663	–
338.15 K, x1 = 0.1009	957.253	–
338.15 K, x1 = 0.2017	936.472	–
338.15 K, x1 = 0.3033	918.174	–
338.15 K, x1 = 0.4051	902.184	–
338.15 K, x1 = 0.5077	888.98	–
338.15 K, x1 = 0.6099	877.726	–
338.15 K, x1 = 0.7652	864.16	–
338.15 K, x1 = 0.895	855.072	–
338.15 K, x1 = 1	848.423	–
343.15 K, x1 = 0.0617	961.835	–
343.15 K, x1 = 0.1009	953.308	1.186
343.15 K, x1 = 0.2017	932.014	1.896
343.15 K, x1 = 0.3033	913.564	2.27
343.15 K, x1 = 0.4051	897.541	2.302
343.15 K, x1 = 0.5077	884.364	2.152
343.15 K, x1 = 0.6099	873.127	1.909
343.15 K, x1 = 0.7652	859.582	1.551
343.15 K, x1 = 0.895	850.491	1.317
343.15 K, x1 = 1	843.844	1.156
348.15 K, x1 = 0.0617	957.228	–
348.15 K, x1 = 0.1009	949.273	–
348.15 K, x1 = 0.2017	927.488	–
348.15 K, x1 = 0.3033	908.868	–
348.15 K, x1 = 0.4051	892.846	–
348.15 K, x1 = 0.5077	879.677	–
348.15 K, x1 = 0.6099	868.45	–
348.15 K, x1 = 0.7652	854.939	–
348.15 K, x1 = 0.895	845.858	–
348.15 K, x1 = 1	839.205	–
353.15 K, x1 = 0.0617	952.666	–
353.15 K, x1 = 0.1009	945.149	0.966
353.15 K, x1 = 0.2017	922.889	1.47
353.15 K, x1 = 0.3033	904.132	1.724
353.15 K, x1 = 0.4051	888.074	1.75
353.15 K, x1 = 0.5077	874.926	1.65
353.15 K, x1 = 0.6099	863.729	1.493
353.15 K, x1 = 0.7652	850.236	1.247
353.15 K, x1 = 0.895	841.163	1.078
353.15 K, x1 = 1	834.521	0.963
358.15 K, x1 = 0.0617	950.878	–
358.15 K, x1 = 0.1009	940.935	–
358.15 K, x1 = 0.2017	918.216	–
358.15 K, x1 = 0.3033	899.314	–
358.15 K, x1 = 0.4051	883.233	–
358.15 K, x1 = 0.5077	870.101	–
358.15 K, x1 = 0.6099	858.928	–
358.15 K, x1 = 0.7652	845.484	–
358.15 K, x1 = 0.895	836.414	–
358.15 K, x1 = 1	829.779	–
363.15 K, x1 = 0.0617	946.398	–
363.15 K, x1 = 0.1009	936.638	–
363.15 K, x1 = 0.2017	913.472	–
363.15 K, x1 = 0.3033	894.425	–
363.15 K, x1 = 0.4051	878.314	–
363.15 K, x1 = 0.5077	865.197	–
363.15 K, x1 = 0.6099	854.052	–
363.15 K, x1 = 0.7652	840.646	–
363.15 K, x1 = 0.895	831.596	–
363.15 K, x1 = 1	824.969	–
